Data on six compounds can be found in article PMC8689007, “In Silico Prediction and Bioactivity Evaluation of Chemical Ingredients Against Influenza A Virus From Isatis tinctoria L” (Frontiers in Pharmacology, 2021).

One may read the IC50 as the concentration needed to halve the response being measured.

The structures appear in SMILES notation. Values after ≈ are worked out from the molar mass of the structure shown. Values joined by “and” are separate entries in the source; they are usually repeats but may differ in a detail not shown here. Identical values can stand only once. Like-named read-outs stand apart in the source and are kept apart here. A value given as a limit tells only on which side of the number the result lay.

Experiment [1] concerns A/Minfang/151/2000 (H3N2). Briefly: microbe, parasite or virus in culture. Particulars: Influenza A virus, H3N2, MDCK.
For experiment [2], the system named is A/PR/8/34 (H1N1).
Experiment [3] has as its system A/PR/8/34 (H1N1). Kind of experiment: microbe, parasite or virus in culture. Particulars: Influenza A virus, MDCK.
In experiment [4] the test system is A/Minfang/151/2000 (H3N2).
A further experiment concerns H1N1. Particulars: restraint-stressed mouse model; ref Chong et al., 2017; cited from earlier work.
Experiment [5] relates to Japanese encephalitis virus (JEV). Particulars: mouse model; ref Chang et al., 2012; cited from earlier work.
The test system is the same in experiment [6]. Particulars: in vitro; ref Chang et al., 2012; cited from earlier work.
The next experiment relates to HCoV-NL63. More on the design: method as in Tsai et al., 2020. Particulars: HCoV-NL63-infected cells; ref Tsai et al., 2020; read-out: IC50 (CPE and virus yield); cited from earlier work.

As to `COc1ccc(-c2cc(=O)c3c(O)cc(O)cc3o2)cc1` [Acacetin], half-maximal inhibition in experiment [1] (IC50) was put at 7.62 ± 1.45 µg/mL (≈ 26.8 µM).
On the same count and under the same terms, with `COc1c(O)cc2oc(-c3ccc(O)cc3)cc(=O)c2c1O` [Dinatin] the figure was over 100 µg/mL.
Take `COc1ccc(-c2cc(=O)c3c(O)c(OC)c(OC)cc3o2)cc1O` [Eupatorin]: the 50% inhibitory concentration (IC50) was 63.99 ± 3.38 µg/mL and 55.77 ± 3.86 µg/mL and 88.92 ± 7.34 µg/mL in the experiment on A/PR/8/34 (H1N1) [2]; 59.5 ± 3.58 µg/mL (≈ 173 µM) in the experiment on A/PR/8/34 (H1N1) [3]; 69.31 ± 1.97 µg/mL and 73.85 ± 1.34 µg/mL and 92.58 ± 0.33 µg/mL in experiment [4].
Consider `O=C1Nc2ccccc2/C1=C1/Nc2ccccc2C1=O` [Indirubin], for which, in the experiment on H1N1, the “H1N1 susceptibility and lung damage” value was “decrease the H1N1 susceptibility and alleviate lung damage”. Besides, the “protection against lethal JEV challenge” value in experiment [5] is “good protective effects”. In addition, in experiment [6], the “inhibitory activity on JEV replication” value was “concentration-dependent inhibitory activity”. The 50% inhibitory concentration (IC50) in experiment [1] was 77.2 ± 6 µg/mL (≈ 294 µM); in the experiment with A/PR/8/34 (H1N1) [2], 63.45 ± 5.27 µg/mL and 86.3 ± 5.68 µg/mL and 69.49 ± 1.36 µg/mL; in the experiment with A/PR/8/34 (H1N1) [3] it was 58.5 ± 10.2 µg/mL (≈ 223 µM).
Regarding `COc1ccc(-c2cc(=O)c3c(O)cc(O[C@@H]4O[C@H](CO[C@@H]5O[C@@H](C)[C@H](O)[C@@H](O)[C@H]5O)[C@@H](O)[C@H](O)[C@H]4O)cc3o2)cc1` [Linarin], the half-inhibitory concentration (IC50) in the experiment with A/PR/8/34 (H1N1) [2] is 54.27 ± 3.01 µg/mL and 72.21 ± 2.42 µg/mL and 56.26 ± 0.78 µg/mL; in the experiment with A/PR/8/34 (H1N1) [3] it was 63.2 ± 3.32 µg/mL (≈ 107 µM); in experiment [4] it was 81.85 ± 2.76 µg/mL and 86.35 ± 9.88 µg/mL and 77.71 ± 3.08 µg/mL.
`O=C1c2ccccc2-n2c1nc1ccccc1c2=O` [Tryptanthrin]: in the experiment with HCoV-NL63, the half-maximal inhibitory concentration (IC50) is 1.52 µM.
